Each structure is given as a SMILES string. Activity calls are given as the source filed them. The rule behind the calls is not given here.

Sequence of NEDD8-conjugating enzyme Ubc12 (Homo sapiens) + NEDD8-activating enzyme E1 regulatory subunit (Homo sapiens) (P61081 whole entry, looked up): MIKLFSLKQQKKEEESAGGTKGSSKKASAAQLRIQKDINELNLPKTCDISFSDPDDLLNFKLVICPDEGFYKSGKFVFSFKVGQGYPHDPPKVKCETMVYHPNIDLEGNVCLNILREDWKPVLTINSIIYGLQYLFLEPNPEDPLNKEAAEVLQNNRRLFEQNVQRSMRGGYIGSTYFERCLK
Sequence of NEDD8-conjugating enzyme Ubc12 (Homo sapiens) + NEDD8-activating enzyme E1 regulatory subunit (Homo sapiens) (Q13564 whole entry, looked up): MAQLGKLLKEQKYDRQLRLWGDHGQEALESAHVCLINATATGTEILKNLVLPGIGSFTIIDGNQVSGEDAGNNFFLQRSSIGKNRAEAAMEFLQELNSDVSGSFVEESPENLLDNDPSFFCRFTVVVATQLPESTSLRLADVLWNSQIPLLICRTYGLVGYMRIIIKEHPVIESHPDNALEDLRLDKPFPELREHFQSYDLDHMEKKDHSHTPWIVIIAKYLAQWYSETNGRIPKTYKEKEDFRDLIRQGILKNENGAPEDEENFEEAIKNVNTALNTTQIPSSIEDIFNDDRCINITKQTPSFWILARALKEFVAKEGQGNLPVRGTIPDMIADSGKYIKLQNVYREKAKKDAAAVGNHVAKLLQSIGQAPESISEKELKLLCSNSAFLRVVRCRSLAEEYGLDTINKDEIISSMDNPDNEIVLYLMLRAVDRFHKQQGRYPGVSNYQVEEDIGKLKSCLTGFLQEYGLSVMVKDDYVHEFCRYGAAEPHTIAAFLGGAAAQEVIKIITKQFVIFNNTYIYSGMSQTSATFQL

The test has as its target NEDD8-conjugating enzyme Ubc12 (Homo sapiens) + NEDD8-activating enzyme E1 regulatory subunit (Homo sapiens) (UniProt P61081+Q13564). The experiment in a line: NEDD8 conjugation to CUL1 blockade – biochemical, TR-FRET, dose response (AID 652247). The following applies: in vitro CUL1 neddylation.
In the case of `Nc1nnc(-c2cc3ccccc3oc2=O)s1`, the IC50 is > 100 µM (inactive).

As to `Cc1ccc(C)c(OCC(=O)N/N=C/c2ccc(N3CCOCC3)cc2)c1`, the IC50 entry is “inactive”.

Consider `CCOc1ccc2[nH]c3ncccc3c(=O)c2c1`, for which the IC50 result is “inactive”.

For the molecule `CC1(C)CC(NC(=O)COc2ccc3c4c(c(=O)oc3c2)CCCC4)CC(C)(C)N1`, the IC50 entry was “inactive”.

Regarding `CCCCN(C)C(=O)c1cc2cc3ccc(OC)cc3nc2o1`, the IC50 result is “inactive”.

Take `Cc1cc(NC(=O)COC(=O)c2nccnc2N)n(-c2ccccc2)n1`: the IC50 is 13.2 µM.

With `CCC(=O)Nc1nnc(/C=C/c2ccccc2)s1`, the IC50 is > 100 µM (inactive).

For `Nc1cccc2c(=O)[nH][nH]c(=O)c12`, the IC50 result was “inactive”.

`CCC(=O)N/C(N)=N/c1nc(C)c2cc(OC)ccc2n1`: the IC50 entry was “inactive”.

`Nc1ncnc2c1ncn2C1OC(COP(=O)(O)O)C(O)C1O` (configuration not stated): the IC50 is 17.4 µM.

`COCCCNC(=O)/C(C#N)=C/c1c(N2CCN(c3ccccc3)CC2)nc2ccccn2c1=O`: the IC50 entry was “inactive”.

As for `CCOC(=O)Cn1nc(/C=C/c2ccccc2)ccc1=O`, the IC50 entry is “inactive”.

`COc1ccc(-c2cc3nc(NCCN4CCCC4)n(C)c(=O)c3s2)cc1OC`: the IC50 result was “inactive”.

Take `CSc1ccc(/C=C2\CCn3c2nc2cc(C(=O)O)ccc2c3=O)cc1`: the IC50 was 19.4 µM.

In the case of `O=C(N/N=C/c1ccc2cccnc2c1)c1nc2ccccc2c(=O)[nH]1`, the IC50 was > 100 µM (inactive).

On to `Cc1cc(NS(=O)(=O)c2ccc(NC(=O)c3cc4c(=O)n5ccccc5nc4s3)cc2)nc(C)n1`, for which the IC50 is 18 µM.

For the molecule `Cc1ccc(Cn2c(=N)c(C(=O)NCCN3CCOCC3)cc3c(=O)n4ccccc4nc32)cc1`, the IC50 is 17.5 µM.

As a reminder, the IC50 is the concentration at which inhibition is half-maximal.

(Values after PubChem BioAssay AID652247 (Sanford-Burnham Center for Chemical Genomics, 2013).)
